This passage reports RP-LC retention time results from the METLIN SMRT retention time set (Domingo-Almenara et al. 2019).

The structures appear in SMILES notation.

The nature of this data set: gradient 5% acetonitrile 3 min, to 50% in 2 min, to 85% in 15 min, held 3 min, 100 µL/min. The note with it: column: Zorbax Extend-C18 2.1 x 50 mm; eluents: water / acetonitrile, 0.1% formic acid. An outline of the steps: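 Pure standards were run in mixtures of ~100 molecules by HPLC coupled to a quadrupole time-of-flight mass spectrometer. The column was a Zorbax Extend-C18 (2.1 × 50 mm, 1.8 μm) at 100 μL/min, with water and acetonitrile each containing 0.1% formic acid, in positive and negative ionization mode. Dead and dwell volumes were 40 μL and 900 μL. Retention time was taken from computationally picked adduct peaks, each manually inspected, with data collected over 3 months.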
With `CNC(=O)[C@@H]1CN(C(=O)c2ccsc2)C[C@H]1c1nc(C)no1`, the RP-LC retention time worked out at 615 s. `Cn1nc(C(=O)Nc2cccc3nsnc23)ccc1=O` showed an RP-LC retention time of 723 s. `Cc1cc(=O)n(CC(=O)Nc2ccc3c(c2)OCCO3)c(N)n1` yielded an RP-LC retention time of 542 s.

Take `CCOc1ccc(-c2nc(-c3ccc(NS(=O)(=O)c4cccs4)cc3)no2)cc1`: the RP-LC retention time was 1170 s. The value for `O=C(CSc1nc2ccccc2s1)Nc1cccn2cc(-c3ccccc3)nc12` was 1110 s; that for `Cc1cccc(-c2noc(C3CCCN3C(=O)NC(C)C)n2)c1` (centres undefined) was 897 s; that for `CCCn1ncc(N2CCC(C(=O)Nc3ccc(OC)cc3OC)CC2)cc1=O` was 723 s. The value for `O=C(CSc1ccc(NC(=O)c2ccco2)cc1)Nc1nc(-c2ccccc2)cs1` was 966 s; that for `O=C(CC1CCN(C(=O)Nc2ccc(F)cc2)CC1)N1CCCCC1` was 740 s. In the case of `O=C(Nc1cccc(F)c1)C1CCCN(S(=O)(=O)c2c[nH]c(C(=O)N3CCCCCC3)c2)C1` (centres undefined), the RP-LC retention time is 919 s.

As for `Cc1nc(C2CCOCC2)n(C2CCN(S(=O)(=O)c3ccc(Cl)cc3C)C2)n1` (centres undefined), the RP-LC retention time is 771 s. The value for `Cc1ccc(C)c2sc(OC3CCN(C(=O)c4ccc(S(C)(=O)=O)cc4)CC3)nc12` was 1000 s; that for `CCCn1ccc2sc(C)c(C(=O)NCc3ccccc3F)c2c1=O` was 908 s; that for `O=C(COc1cc(O)c2c(=O)cc(-c3ccccc3)oc2c1)OCc1ccccc1` was 1200 s. The value for `COCCCNC(=O)N1CCCN(C2=NS(=O)(=O)C(c3ccc(C)c(C)c3)=C2C)CC1` was 739 s.

As to `O=S(=O)(c1ccc(-c2noc(-c3ccccc3F)n2)cc1)N1CCCC1`, the RP-LC retention time was 1100 s.

With `CCn1ncc(C(=O)N2CC[C@@H]3CN(S(C)(=O)=O)[C@@H]3C2)c1C`, the RP-LC retention time was determined as 594 s.

Turning to `O=C(NC1CCN(c2cc(-c3cccs3)[nH]n2)C1)c1cc(F)ccc1Cl` (centres undefined), the RP-LC retention time came out at 797 s. With `CN(C)C(=O)c1n[nH]c2c1CN(C(=O)c1ccc(F)cc1)CC2`, the RP-LC retention time is 622 s. For `COc1ccccc1CNC(=O)Cn1c(=O)c2cc(C3CC3)nn2c2ncccc21` the value was 760 s.

Molecule `CCNC(=O)CCc1nc2ccccc2n(CC(=O)NCc2cccc(OC)c2OC)c1=O` had an RP-LC retention time of 1110 s.

In the case of `O=C(NCc1ccc(Cl)cc1)c1c(O)c2cccnc2[nH]c1=O`, the RP-LC retention time worked out at 1000 s.

Consider `CS(=O)(=O)Nc1ccc(-c2noc(COc3ccc(Cl)cc3)n2)cc1`, for which the RP-LC retention time was determined as 974 s. In turn, `Cc1cc(C2CCCN2C(=O)c2c(F)cccc2Cl)on1` (centres undefined) displayed an RP-LC retention time of 773 s. The value for `CCOC(=O)c1c(C)[nH]c(C(=O)N2CCCC(C(=O)NCc3ccco3)C2)c1C` (centres undefined) was 722 s.

Consider `O=C(Nc1ccc2c(c1)OCO2)N1CCN(c2nc3cccnc3n(Cc3ccccc3)c2=O)CC1`, for which the RP-LC retention time was 1010 s. For `CN1C(=O)c2cc(C(=O)NCc3ccccc3F)nn2CC1(C)C(=O)NCc1ccc(F)cc1` (centres undefined) the value was 792 s; for `Cc1ccc(-c2csc(-n3nc(C)c(CC(=O)Nc4ccc(Br)cc4)c3C)n2)cc1`, 1350 s; for `O=C(C1CC1)N1CCC(COCc2ccccc2)CC1`, 831 s. The value for `CCOc1ccc(-n2c(N3CCN(C)CC3)nc3cc(C(=O)OC)ccc3c2=O)cc1` was 645 s; that for `COc1cccc(NC(=O)C2c3cc(OC)c(OC)cc3C(=O)N3CCc4ccccc4C23)c1` (centres undefined) was 809 s. As to `CCOC(=O)c1cnc(N2CCN(c3ccccn3)CC2)c2ccccc12`, the RP-LC retention time is 692 s. The value for `CCN(CC)S(=O)(=O)c1cc(-c2nnc(-c3cccc(C)c3)o2)ccc1Cl` was 1200 s.

With `CC(=O)Nc1c(C(=O)Nc2ccc(Cl)cc2)nnn1-c1ccccc1`, the RP-LC retention time came to 838 s. The value for `CCN(CC)c1cc(CNC(=O)Nc2cc(Cl)c(OC)cc2OC)ccn1` was 638 s. The value for `Cc1[nH]c(C)c(S(=O)(=O)N2CCC(C(=O)N3CCC(C)CC3)CC2)c1C(=O)N1CCCCC1` was 760 s; that for `CCC(=O)Nc1ccc(C2(C(=O)NC(C)CC)CCCCC2)cc1` (centres undefined) was 845 s. `O=C(NC1CCN(c2cc(-c3ccc(F)cc3)[nH]n2)C1)c1ccc2[nH]ccc2c1` (centres undefined): the RP-LC retention time came to 689 s.

On to `O=C(NCc1nc2ccccc2n1CCCCOc1ccccc1Cl)c1ccco1`, for which the RP-LC retention time was 660 s. Molecule `CCOC(=O)c1oc2ccc(S(=O)(=O)N3CCCCCCNC(=O)[C@@H]4CCC[C@@H]43)cc2c1C` registered an RP-LC retention time of 1060 s.

`COC(=O)C1=C(C)N(C2CCCCC2)C(=O)C1(NC(=O)c1cccc(OC)c1)C(F)(F)F` (centres undefined) displayed an RP-LC retention time of 1070 s. The value for `Cc1ccc(CNC(=O)CCCN2C(=O)CCn3nc(-c4cccn4C)cc32)cc1` was 795 s; that for `Cc1[nH]c(-c2ccc(Cl)cc2)cc1C(=O)N1CCC(C)CC1` was 1010 s.

The molecule `Cc1cccn2cc(C(=O)NCc3ccc(Cl)cc3)nc12` displayed an RP-LC retention time of 704 s. For `CC(C)n1c(CC2CCN(C(=O)Nc3ccccc3Cl)C2)nc2cccnc21` (centres undefined) the value was 648 s. The value for `O=C1NC2=C(C(=O)CCC2)C(c2cccc([N+](=O)[O-])c2)N1` (centres undefined) was 606 s; that for `Cc1cc2c(c(=O)n(-c3ccccc3)c(=O)n2CC(=O)Nc2ccc(F)cc2)n1C` was 797 s. Take `COc1ccc(NC(=O)C2CCCN(c3nnc4ccc(Cl)cn34)C2)cc1` (centres undefined): the RP-LC retention time amounted to 666 s. The value for `Cc1ccc2nc(-c3ccc(N(C)C)cc3)c(Nc3ccccc3C)n2c1` was 812 s; that for `O=C(NCc1cccc(F)c1)C1CCN(c2nnc3ccc(Cl)cn23)CC1` was 710 s; that for `Cc1cccc(CSc2nnc3c(S(=O)(=O)N4CCCC4)cccn23)c1` was 883 s. `CC(C)NC(=O)c1nnc(-c2ccc(S(=O)(=O)N(C)C)cc2)o1` gave an RP-LC retention time of 737 s. For `CS(=O)(=O)NCC1CCC(C(=O)NCCCn2ccnc2)CC1` (centres undefined) the value was 570 s. The value for `COC(=O)C1=C(CN2CCCC2)NC(=O)NC1c1ccccc1C` (centres undefined) was 588 s; that for `CC1(c2noc(C3CC3)n2)CCN(C(=O)C2CCN(S(=O)(=O)N3CCOCC3)CC2)CC1` was 784 s. The molecule `Cc1cc(C)cc(NC(=O)N2CCc3cn(C)c4cccc(c34)C2)c1` came in with an RP-LC retention time of 1050 s. For `Cc1cc(C)cc(NC(=O)N2CCC3(CC2)NC(=O)c2ccccc2O3)c1` the value was 842 s; for `CCC1CCCCN1Cc1nc(Cn2ccn3nc(-c4ccc(F)cc4)cc3c2=O)no1` (centres undefined), 704 s. For `Cn1c(CC2CCN(C(=O)c3ccccc3Cl)C2)nc2cccnc21` (centres undefined) the value was 572 s. Regarding `COc1ccccc1CNC1=NCCNC12CCN(S(=O)(=O)c1ccc(F)cc1)CC2`, the RP-LC retention time was 704 s. The value for `CC(=O)c1cccc(NC(=O)CC2COc3ccccc3NC2=O)c1` (centres undefined) was 676 s; that for `CCCCN1CC(c2nc3ccccc3n2CC(=O)N2CCOCC2)CC1=O` (centres undefined) was 598 s. The value for `Cc1cc(NC(=O)Nc2ccc3nc(N4CCN(C)CC4)cc(C)c3c2)ccc1Br` was 642 s. For `CCOc1ccc(CC(=O)N2CCCN(c3cc(-c4ccc(Br)cc4)[nH]n3)CC2)cc1OCC` the value was 842 s. `CCN1C(=O)c2cccnc2Sc2cc(NC(=O)COc3ccc(F)c(F)c3)ccc21` showed an RP-LC retention time of 882 s. For the molecule `Cc1ccc(N2C(=O)CCS2(=O)=O)cc1S(=O)(=O)N1CCC(C(N)=O)CC1`, the RP-LC retention time came out at 638 s.

As for `O=C(c1ccccc1)N1C[C@@H]2C[C@H]1C[C@@H]2NS(=O)(=O)c1ccccc1`, the RP-LC retention time came to 752 s.

Regarding `CCN1CCCn2cc(S(=O)(=O)N3CCN(c4ccc(Cl)cc4)CC3)cc2C1=O`, the RP-LC retention time was 894 s. For `Cc1cc(C)c(S(=O)(=O)N2CCC(n3cnc4c(C)cccc4c3=O)CC2)c(C)c1` the value was 1120 s. With `CCCc1cc(C2CCCN2C(=O)Nc2cccc(C)c2)no1` (centres undefined), the RP-LC retention time came to 945 s. As to `O=C(Nc1ccc(-c2cn3cccnc3n2)cc1)c1ccc(F)c(F)c1`, the RP-LC retention time is 647 s.

The molecule `CCc1nc2c(sc3nc(-c4ccccc4)ccc32)c(=O)n1CC(=O)N1CCc2ccccc2C1` gave an RP-LC retention time of 1170 s. The molecule `CC(C)C(=O)Nc1ccc(S(=O)(=O)NCC(c2ccsc2)N(C)C)cc1` (centres undefined) came in with an RP-LC retention time of 565 s. The value for `O=C(NCc1ccccc1)N1CC(Oc2cccc(-c3nc(-c4ccccc4)no3)c2)C1` was 1130 s.

`CC1C(=O)NCCN1C(=O)c1ccc(Oc2ccccc2)cc1` (centres undefined) had an RP-LC retention time of 670 s. For `O=C(NCC1CCCO1)c1coc(NC(=O)C2CC2)n1` (centres undefined) the value was 571 s; for `C=CCN(Cc1nc(-c2ccc(C)cc2)no1)C(=O)Nc1ccc(C)cc1`, 1100 s. Take `COC(=O)c1cc2n(n1)CC(C)(C(=O)NC1CCCCC1)N(c1ccccc1F)C2=O` (centres undefined): the RP-LC retention time is 853 s. The molecule `Cc1cc(C)n2nc(SCC(=O)NCc3ccccc3)nc2n1` gave an RP-LC retention time of 705 s.
